The text below walks through data of patent publication US10888542B2 (SK BIOPHARMACEUTICALS CO., LTD., priority 2014, dated 2021).

One assay concerns the target T1, dopamine transporter (Rattus norvegicus, UniProt P23977).
T1 construct: The receptor source was rat striatal membranes; from tissue; host or cells: striatum of male SD rats (Orient Korea), membrane preparation
Briefly: Dopamine transporter binding assay ([3H]GBR12935, rat striatal membranes). The note with it: 10 μM test compound, radioligand [3H]GBR12935 1.0 nM, 25° C., 45 minutes. On the procedure: Rats (SD-rat, Orient Korea, male, 200-250 g) were sacrificed by decapitation. The striata were removed immediately and then stored at −80° C. until used. On the day of the manipulation, the striata were thawed and suspended in 20 volumes of buffer containing 50 mM Tris-HCl and 120 mM NaCl (pH 7.7). The suspension then was centrifuged at 17,700 rpm for 20 minutes. The pellet was resuspended in 20 volumes of the buffer and centrifuged at 17,700 rpm for 20 minutes. This procedure was repeated once more. The pellet obtained was resuspended in a few ml of the buffer and then homogenized. The concentration of the receptor source was determined by Lowry et al., 1951, J. Biol. Chem. 193:265-275.
Dopamine Transporter Assay Protocol
The dopamine reuptake transporter binding assay was performed according to the methods described in Madras et al., 1989, Mol. Pharmacol. 36(4):518-524, and Javitch et al., 1984, Mol. Pharmacol. 26(1):35-44. The receptor source was rat striatal membranes; the radioligand was GBR12935 [prolyene-2,3-^3H] […]

For a further assay, the system named is mice. In words: Locomotor activity test (LMA). Type of assay: in vivo. The note with it: ip, LMA measured 30 minutes after dosing, counts for 10 minutes, percent change from control. An excerpt: Psychostimulant activity was examined through the locomotor activity test (LMA). The LMA is a behavioral test developed to predict the efficacy of psychostimulants. The LMA is an attractive test for psychostimulants because it is sensitive and specific. All of the major classes of psychostimulants enhance ambulatory activities in the LMA, including methylphenidate, amphetamine, and many other psychostimulants.
Sixteen (16) mice (3 weeks CrjBgi:CD-1 (ICR) and 8 weeks C57BL/6) were purchased from Orient Bio Inc. (Gyeonggi-do, Korea). The mice were divided into a control group and a drug-treated group (eight (8) mice per group) by a block randomization method. Each of the group was placed in an empty cage and bred under environmental conditions of 19-25° C. with a relative humidity of 40-60% and a lighting cycle of 12 hr light/12 hr dark. Diet and water were supplied ad libitum. After one week of acclimation, the LMA test was carried out. The mice were habituated for over 1 hour in an LMA room before starting the LMA test. After habituation, the test compounds (10 or 30 mg/kg) were administered to the drug-treated group by intraperitoneal injection. At 30 minutes after i.p. dosing, LMA was measured using automated photobeams, Opto-Varimax® (Columbus Instruments, Ohio, US) and recorded on a computer. The total locomoter counts for each mouse were recorded for 10 minutes.
Statistical mean values for control and drug-treated groups were calculated and the percent changes from control were determined.

T1 sequence (P23977 whole entry): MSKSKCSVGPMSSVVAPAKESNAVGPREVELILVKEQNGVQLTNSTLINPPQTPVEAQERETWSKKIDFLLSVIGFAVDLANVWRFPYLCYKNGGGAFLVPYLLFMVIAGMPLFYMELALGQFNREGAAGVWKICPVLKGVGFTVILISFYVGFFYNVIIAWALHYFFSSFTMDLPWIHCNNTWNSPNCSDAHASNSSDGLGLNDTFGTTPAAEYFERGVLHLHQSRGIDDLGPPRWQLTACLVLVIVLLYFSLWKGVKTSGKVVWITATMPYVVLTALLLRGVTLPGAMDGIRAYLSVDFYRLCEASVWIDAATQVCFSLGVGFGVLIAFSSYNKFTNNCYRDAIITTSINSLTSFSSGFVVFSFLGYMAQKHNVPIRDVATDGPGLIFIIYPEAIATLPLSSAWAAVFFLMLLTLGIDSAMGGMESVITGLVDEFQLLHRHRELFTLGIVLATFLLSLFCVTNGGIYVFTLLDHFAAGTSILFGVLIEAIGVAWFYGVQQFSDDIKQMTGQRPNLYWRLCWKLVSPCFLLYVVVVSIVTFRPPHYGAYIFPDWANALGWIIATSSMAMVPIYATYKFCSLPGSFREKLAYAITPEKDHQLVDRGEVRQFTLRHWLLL

As usually defined, the inhibition is the change of the read-out against control, counted positive when it falls. A high value points to a response far below the control. In the case of `Cl.NC(=O)NC(=O)OC[C@H](N)Cc1ccccc1` [Example 2, (2R)-2-Amino-3-phenylpropyl (aminocarbonyl)carbamate], on dopamine transporter, the inhibition at 10 µM was determined as 50.1%. Further, the “% ambulation” value in the assay with mice (30 mg/kg) is reported as 118.7% (30 mg/kg, ip). Consider `CC(C)N[C@@H](COC(=O)NC(N)=O)Cc1ccccc1.Cl` [Example 3, (2R)-2-(Isopropylamino)-3-phenylpropyl (aminocarbonyl)carbamate], for which 10 µM produced 40.1% inhibition at dopamine transporter. Moreover, in the assay with mice (30 mg/kg), the “% ambulation” value was 291.5% (30 mg/kg, ip). Consider `CN(C)[C@@H](COC(=O)NC(N)=O)Cc1ccccc1.Cl` [Example 4, (2R)-2-(Dimethylamino)-3-phenylpropyl (aminocarbonyl)carbamate], for which, at dopamine transporter, testing at 10 µM gave an inhibition of 38.4%. Besides, in the assay with mice (30 mg/kg), the “% ambulation” value is reported as 242.6% (30 mg/kg, ip). The compound `NC(=O)NC(=O)OC[C@H](N)Cc1ccc(Cl)cc1Cl` [Example 6, (2R)-2-Amino-3-(2,4-dichlorophenyl)propyl (aminocarbonyl)carbamate] returned an inhibition at 10 µM at dopamine transporter of 20.4%. Same read-out and setting: with `NC(=O)NC(=O)OC[C@H](N)Cc1ccc(Cl)c(Cl)c1` [Example 7, (2R)-2-Amino-3-(3,4-dichlorophenyl)propyl (aminocarbonyl)carbamate] the figure was 41.2%. `CN(C(N)=O)C(=O)OC[C@H](N)Cc1ccccc1` [Example 8]: at dopamine transporter, testing at 10 µM gave an inhibition of 20.3%. For the same compound, in the assay with mice (30 mg/kg), the “% ambulation” value is reported as 186.4% (30 mg/kg, ip). As for `NC(=O)NC(=O)OCC(N)Cc1ccc(Cl)cc1` (stereo not shown) [Example 9], at 10 µM the inhibition at dopamine transporter was 42.8%. Still for that read-out and setting: with `CN[C@@H](COC(=O)NC(N)=O)Cc1ccccc1` [Example 14] the figure was 35.9%. In the case of `CN(C(N)=O)C(=O)OC[C@@H](Cc1ccccc1)N(C)C` [Example 15], the inhibition at 10 µM on dopamine transporter was 55.5%. Moreover, in the assay with mice (10 mg/kg), the “% ambulation” value is recorded as 202.2% (10 mg/kg, ip). Compound `NC(=O)N(Cc1ccccc1)C(=O)OC[C@H](N)Cc1ccccc1` [Example 16, (2R)-2-Amino-3-phenylpropyl (aminocarbonyl)benzylcarbamate] returned an inhibition at 10 µM on dopamine transporter of 20.8%. Still for that read-out and setting: with `CCN(C(N)=O)C(=O)OC[C@H](N)Cc1ccccc1` [Example 17, (2R)-2-Amino-3-phenylpropyl(aminocarbonyl)ethylcarbamate] the figure was 41.2%; with `CN(C(N)=O)C(=O)OC[C@H](N)Cc1ccccc1Cl` [Example 18], 17.5%.

At dopamine transporter, `CN(C(N)=O)C(=O)OC[C@H](N)Cc1ccc(F)cc1` [Example 19, 2-Amino-3-(4-fluorophenyl)propyl(aminocarbonyl)methylcarbamate] returned an inhibition at 10 µM of 34.3%. On the same count and under the same terms, the figure for `CN(C(N)=O)C(=O)OC[C@H](N)Cc1ccc(Cl)cc1Cl` [Example 21, (2R)-2-amino-3-(2,4-dichlorophenyl)propyl (aminocarbonyl) Methylcarbamate] is 31.5%; for `CN(C(N)=O)C(=O)OC[C@H](N)Cc1ccc(Cl)c(Cl)c1` [Example 22, (2R)-2-Amino-3-(3,4-dichlorophenyl)propyl (aminocarbonyl) Methylcarbamate] it is 37%; for `CN(C(N)=O)C(=O)OCC(N)Cc1ccccc1` (stereo not shown) [Example 24] it is 45%. In turn, `N[C@@H](COC(=O)NC(=O)Nc1ccccc1)Cc1ccccc1` [Example 29, (2R)-2-Amino-3-phenylpropyl (anilinocarbonyl)carbamate] displayed an inhibition at 10 µM at dopamine transporter of 50.7%.
